Measurements: ChEMBL document CHEMBL2021860, “Structure-activity relationships and key structural feature of pyridyloxybenzene-acylsulfonamides as new, potent, and selective peroxisome proliferator-activated receptor (PPAR) γ Agonists” (Bioorg Med Chem, 2012)

How the values were obtained:
[1] = Clearance in rat liver microsomes at 1 umol/L after 20 mins by HPLC analysis in presence of NADPH; type: ADME, Microsome; conditions: read-out: CLH
[2] = biological target: T1, Peroxisome proliferator-activated receptor gamma (Homo sapiens, UniProt P37231); assay: Transactivation of human PPARgamma1 expressed in CHO-K1 cells co-expressing RXRalpha and PPRE after 1 day by luciferase reporter gene assay; type: cell-based
T1 sequence (P37231 whole entry): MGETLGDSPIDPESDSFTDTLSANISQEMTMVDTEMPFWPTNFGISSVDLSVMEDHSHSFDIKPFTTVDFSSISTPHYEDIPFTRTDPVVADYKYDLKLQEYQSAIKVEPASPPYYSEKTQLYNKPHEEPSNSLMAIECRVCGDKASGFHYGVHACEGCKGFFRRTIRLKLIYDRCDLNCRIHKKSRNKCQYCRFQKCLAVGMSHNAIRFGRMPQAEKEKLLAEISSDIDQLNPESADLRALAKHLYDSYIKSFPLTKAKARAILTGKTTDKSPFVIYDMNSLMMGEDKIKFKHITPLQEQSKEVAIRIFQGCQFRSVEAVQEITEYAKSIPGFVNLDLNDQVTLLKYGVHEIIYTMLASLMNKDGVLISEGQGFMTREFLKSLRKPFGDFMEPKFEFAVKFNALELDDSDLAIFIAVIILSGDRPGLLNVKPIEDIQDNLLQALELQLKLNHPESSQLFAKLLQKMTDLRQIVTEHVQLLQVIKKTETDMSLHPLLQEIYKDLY

[3] = Clearance in human liver microsomes at 1 umol/L after 20 mins by HPLC analysis in presence of NADPH; type: ADME, Microsome; conditions: read-out: CLH
[4] = Dissociation constant, pKa of the compound; type: physicochemical
[5] = Clearance in rat liver microsomes at 1 umol/L after 2 hrs by HPLC analysis in absence of NADPH; type: ADME, Microsome; conditions: read-out: CLH
[6] = Clearance in human liver microsomes at 1 umol/L after 2 hrs by HPLC analysis in absence of NADPH; type: ADME, Microsome; conditions: read-out: CLH
[7] = biological target: T1, Peroxisome proliferator-activated receptor gamma; assay: Displacement of [3H]-AD-5061 from human GST-tagged PPARgamma
[8] = Cmax in Wistar fatty rat at 0.18 mg/kg, po; type: ADME, organism-based; design: dose 0.18 mg/kg, route oral; conditions: in vivo
[9] = test system: Rattus norvegicus; assay: Antidiabetic activity in po dosed Wistar fatty rat type 2 diabetes model assessed as reduction on plasma glucose level administered once daily for 7 days measured by autoanalyzer relative to control; type: functional; conditions: 168 h
[10] = biological target: T2, Peroxisome proliferator-activated receptor alpha (Homo sapiens, UniProt Q07869); assay: Transactivation of human PPARalpha expressed in african green monkey COS1 cells after 1 day by luciferase reporter gene assay; type: cell-based, COS-1
T2 sequence (Q07869 whole entry): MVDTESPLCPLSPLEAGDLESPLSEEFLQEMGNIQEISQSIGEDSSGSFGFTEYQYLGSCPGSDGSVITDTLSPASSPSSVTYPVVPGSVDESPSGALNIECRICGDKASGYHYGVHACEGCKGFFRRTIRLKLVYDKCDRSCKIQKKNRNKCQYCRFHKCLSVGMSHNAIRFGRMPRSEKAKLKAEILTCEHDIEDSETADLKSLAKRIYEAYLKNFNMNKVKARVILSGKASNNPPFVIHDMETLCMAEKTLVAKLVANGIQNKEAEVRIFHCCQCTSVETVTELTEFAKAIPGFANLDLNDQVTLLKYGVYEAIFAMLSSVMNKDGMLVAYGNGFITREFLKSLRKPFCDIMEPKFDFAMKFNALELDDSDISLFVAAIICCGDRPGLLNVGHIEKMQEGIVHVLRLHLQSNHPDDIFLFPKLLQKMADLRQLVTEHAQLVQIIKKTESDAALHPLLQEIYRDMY

[11] = AUC (0 to 24 hrs) in Wistar fatty rat at 0.18 mg/kg, po; type: ADME, organism-based; design: time < 24 hr, dose 0.18 mg/kg, route oral; conditions: plasma
[12] = biological target: T3, Peroxisome proliferator-activated receptor delta (Homo sapiens, UniProt Q03181); assay: Transactivation of human PPARdelta expressed in african green monkey COS1 cells after 1 day by luciferase reporter gene assay; type: cell-based, COS-1
T3 sequence (Q03181 whole entry): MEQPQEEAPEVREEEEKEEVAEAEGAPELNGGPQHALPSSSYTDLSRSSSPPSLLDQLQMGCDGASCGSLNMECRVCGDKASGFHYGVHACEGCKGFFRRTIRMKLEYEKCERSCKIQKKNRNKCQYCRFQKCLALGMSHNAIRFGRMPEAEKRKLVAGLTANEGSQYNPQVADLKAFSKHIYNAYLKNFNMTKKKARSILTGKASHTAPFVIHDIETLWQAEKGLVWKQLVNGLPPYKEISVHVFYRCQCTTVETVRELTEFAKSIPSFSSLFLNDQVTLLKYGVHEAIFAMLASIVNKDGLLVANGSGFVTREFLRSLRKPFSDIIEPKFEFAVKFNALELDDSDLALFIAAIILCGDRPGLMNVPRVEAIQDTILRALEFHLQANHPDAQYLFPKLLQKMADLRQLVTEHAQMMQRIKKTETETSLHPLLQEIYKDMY

[13] = test system: Rattus norvegicus; assay: Antidiabetic activity in po dosed Wistar fatty rat type 2 diabetes model assessed as reduction on plasma triglyceride level administered once daily for 7 days measured by autoanalyzer relative to control; type: functional; conditions: 168 h

microsomal CLint at 1 µM [1]	EC50 [2]	microsomal CLint at 1 µM [3]	SMILES	also measured
< 1 µL/min/mg	320 nM	6 µL/min/mg	CCCCCS(=O)(=O)NC(=O)/C=C/c1ccc(OCCCS(C)(=O)=O)cc1Oc1ncc(C(F)(F)F)cc1Cl	
< 1 µL/min/mg	> 10000 nM	< 1 µL/min/mg	CCCCCS(=O)(=O)NC(=O)/C=C/c1ccc(OCCOC)cc1Oc1ccc(C(F)(F)F)cn1	
19 µL/min/mg		19 µL/min/mg	CCCCCS(=O)(=O)NC(=O)/C=C/c1ccc(OC(C)C)cc1Oc1ncc(C(F)(F)F)cc1Cl	
	> 10000 nM		CCCCCS(=O)(=O)NC(=O)/C=C/c1ccc(OCCOC)cc1Oc1ncc(NC(C)=O)cc1C	
20 µL/min/mg		20 µL/min/mg	CCCCCS(=O)(=O)NC(=O)/C(C)=C/c1ccc(OCCOC)cc1Oc1ncc(C(F)(F)F)cc1Cl	
62 µL/min/mg		77 µL/min/mg	CCCCCS(=O)(=O)NC(=O)CCc1ccc(OCCOC)cc1Oc1ncc(C(F)(F)F)cc1Cl	pKa [4]: 4.6; metabolised at 2 h, 1 µM [5]: 13.6%; metabolised at 2 h, 1 µM [6]: 50.1%
92 µL/min/mg		95 µL/min/mg	CCCCCS(=O)(=O)NC(=O)CCc1ccc(OCC(=O)N(CC)CC)cc1Oc1ncc(C(F)(F)F)cc1Cl	
	5.5 nM	40 µL/min/mg	CCCCCS(=O)(=O)NC(=O)C1CC1c1ccc(OCCOC)cc1Oc1ncc(C(F)(F)F)cc1Cl (stereo not drawn)	metabolised at 2 h, 1 µM [5]: 81.7%; hepatic extraction ratio at 20 min, 1 µM [1]: 0.26; metabolised at 2 h, 1 µM [6]: 73.8%
9 µL/min/mg	190 nM	9 µL/min/mg	CCCCCS(=O)(=O)NC(=O)/C=C/c1ccc(OCCOC)cc1Oc1ncc(Cl)cc1Cl	
111 µL/min/mg		70 µL/min/mg	CCCCCNS(=O)(=O)NC(=O)CCc1ccc(OCCOC)cc1Oc1ncc(C(F)(F)F)cc1Cl	
78 µL/min/mg		113 µL/min/mg	CCCCCS(=O)(=O)NC(=O)C(C)(C)Cc1ccc(OCCOC)cc1Oc1ncc(C(F)(F)F)cc1Cl	
6 µL/min/mg		9 µL/min/mg	CCCCCS(=O)(=O)NC(=O)/C=C/c1ccc(OCCOC)cc1Oc1ncc(C(F)(F)F)cc1Cl	metabolised at 2 h, 1 µM [5]: 87.3%; IC50 [7]: 330 nM; Cmax [8]: 946 ng/mL; ED25 [9]: 0.17 mg/kg; EC50 [10]: > 10000 nM; metabolised at 2 h, 1 µM [6]: 94.8%; AUC(0-t) at 24 h [11]: 15300 ng·h/mL; EC50 [12]: > 10000 nM; ED25 [13]: 0.2 mg/kg

Continued, compound first:

SMILES	microsomal CLint at 1 µM [1]	EC50 [2]	microsomal CLint at 1 µM [3]	also measured
COCCOc1ccc(CCC(=O)NS(=O)(=O)c2ccccc2)c(Oc2ncc(C(F)(F)F)cc2Cl)c1		32 nM		
CCCCCS(=O)(=O)NC(=O)CCc1ccccc1Oc1ncc(C(F)(F)F)cc1Cl	120 µL/min/mg	61 nM	78 µL/min/mg	
CCCCCS(=O)(=O)NC(=O)/C=C/c1ccc(OCCCOC)cc1Oc1ncc(C(F)(F)F)cc1Cl	15 µL/min/mg		16 µL/min/mg	
CCCCCNC(=O)CCc1ccc(OC(C)C)cc1Oc1ncc(C(F)(F)F)cc1Cl		290 nM		
COCCCS(=O)(=O)NC(=O)CCc1ccc(OCCOC)cc1Oc1ncc(C(F)(F)F)cc1Cl	11 µL/min/mg	11 nM	7 µL/min/mg	
CCCCOC(=O)NCCCc1ccc(OCCOC)cc1Oc1ncc(C(F)(F)F)cc1Cl		38 nM		
CCCCCS(=O)(=O)NC(=O)C(C)Cc1ccc(OCCOC)cc1Oc1ncc(C(F)(F)F)cc1Cl (stereo not drawn)	189 µL/min/mg		128 µL/min/mg	
CCCCCS(=O)(=O)NC(=O)/C=C/c1ccc(OCCC(C)=O)cc1Oc1ncc(C(F)(F)F)cc1Cl	19 µL/min/mg	59 nM	30 µL/min/mg	
CCCCCS(=O)(=O)NC(=O)OCCCc1ccc(OCCOC)cc1Oc1ncc(C(F)(F)F)cc1Cl	35 µL/min/mg		90 µL/min/mg	pKa [4]: 4.6
CCCCCS(=O)(=O)NC(=O)/C=C/c1ccc(OCCOC)cc1Oc1ccc(C(F)(F)F)cc1Cl	10 µL/min/mg	94 nM	14 µL/min/mg	
CCCCCS(=O)(=O)NC(=O)CCc1ccc(OCCN2CCCC2=O)cc1Oc1ncc(C(F)(F)F)cc1Cl	104 µL/min/mg		78 µL/min/mg	
CCCCCS(=O)(=O)NCCCc1ccc(OCCOC)cc1Oc1ncc(C(F)(F)F)cc1Cl	204 µL/min/mg	32 nM	210 µL/min/mg	
CCCCCS(=O)(=O)NC(=O)CCc1ccc(OC(C)C)cc1Oc1ncc(C(F)(F)F)cc1Cl	94 µL/min/mg		57 µL/min/mg	
CCCCNC(=O)OCCCc1ccc(OCCOC)cc1Oc1ncc(C(F)(F)F)cc1Cl		48 nM		
CCCCCS(=O)(=O)NC(=O)/C=C/c1ccc(OCCCC#N)cc1Oc1ncc(C(F)(F)F)cc1Cl	19 µL/min/mg		23 µL/min/mg	
COCCOc1ccc(CCC(=O)NS(=O)(=O)c2ccc(Cl)cc2)c(Oc2ncc(C(F)(F)F)cc2Cl)c1	71 µL/min/mg	8.6 nM	67 µL/min/mg	
CCCCCS(=O)(=O)NC(=O)/C=C/c1ccc(OCCOC2CC2)cc1Oc1ncc(C(F)(F)F)cc1Cl	17 µL/min/mg		25 µL/min/mg	
CCCCCS(=O)(=O)NC(=O)OCc1ccc(OCCOC)cc1Oc1ncc(C(F)(F)F)cc1Cl	31 µL/min/mg		23 µL/min/mg	
CCCCCS(=O)(=O)NC(=O)C(Cc1ccc(OCCOC)cc1Oc1ncc(C(F)(F)F)cc1Cl)OC (stereo not drawn)	15 µL/min/mg		72 µL/min/mg	
CCCCCS(=O)(=O)NC(=O)/C=C/c1ccc(OCCOC)cc1Oc1ncccc1Cl	15 µL/min/mg	> 10000 nM	18 µL/min/mg	
CCCCCS(=O)(=O)NC(=O)/C=C/c1ccc(OCCOC)cc1Oc1ncc(N)cc1C		> 10000 nM		
CCCCCS(=O)(=O)NC(=O)/C=C/c1ccc(OCCO)cc1Oc1ncc(C(F)(F)F)cc1Cl	< 1 µL/min/mg		< 1 µL/min/mg	
